According to US20230233567A1, “BELVARAFENIB FOR USE IN CANCER TREATMENT” (Hanmi Pharm. Co., Ltd., priority 2020, published 2023):
Where two headings read alike, the source gives them in different places. Each block holds one compound with its values, some of them ahead of it.

Tests used:
HCT116 (KRAS^G13D) = assay: In vitro cell growth inhibition, CRC; format: cell-based; conditions: Homo sapiens, HCT-116
[1] = system: MEK and ERK phosphorylation in HCT116 (KRAS^G13D) cells; assay: Inhibition of MEK and ERK phosphorylation, KRAS mutant; format: cell-based; conditions: Homo sapiens, HCT-116, CRC HCT116, KRAS G13D, 2 hr treatment
[2] = system: MEK and ERK phosphorylation in Lovo (KRAS^G13D) cells; assay: as above; format: cell-based; conditions: Homo sapiens, CRC Lovo, KRAS G13D, 2 hr treatment
A375 (BRAF^V600E) = assay: In vitro cell growth inhibition, melanoma; format: cell-based; conditions: Homo sapiens, A-375, mean ± SD, n = 3
P-MEK / total MEK = assay: % P/T-MEK (ratio of P-MEK and total MEK)
Description: Belvarafenib was evaluated to measure the inhibition capability of RAF monomers and dimers. In Table 12: “A375” refers to the A375 a human melanoma cell line bearing a BRAF^V600E mutation; “IPC298” refers to the IPC298 cutaneous melanoma cell line bearing an NRAS^Q61L mutation; “A549” refers to the A549 lung adenocarcinoma cell line baring a KRAS mutation; “CSFR1” refers to the CSFR1 gene; “DDR1” refers to discoidin domain receptors DDR1; and “DDR2” refers to discoidin domain receptors DDR2. In Table 13: “% P/T−MEK” refers to the ratio of P-MEK and total MEK; “Conc 1” refers to an inhibitor first (lowest) concentration; “Conc 2” refers to an inhibitor second (intermediate) concentration; and “Conc 3” refers to an inhibitor third (highest) concentration. In Table 13, LXH254 refers to a drug having CAS No.: 1800398-38-2 and the following structure: […]

Calu-6 (KRAS^Q61K) = assay: In vitro cell growth inhibition, NSCLC; format: cell-based; conditions: Homo sapiens
SK-MEL-28 (BRAF^V600E) = assay: In vitro cell growth inhibition, melanoma; format: cell-based; conditions: Homo sapiens, mean ± SD, n = 3
SK-MEL-2 (NRAS^Q61R) = assay: In vitro cell growth inhibition, melanoma; format: cell-based; conditions: Homo sapiens, mean ± SD, n = 3
Description: (§1) A G150 of 69, 57, 53, and 24 nM were determined for SK-MEL-28, A375, SK-MEL-2, and SK-MEL-30 cell lines, respectively.

SK-MEL-30 (NRAS^Q61K) = assay: In vitro cell growth inhibition, melanoma; format: cell-based; conditions: Homo sapiens, mean ± SD, n = 3
Description: as §1

LS513 (KRAS^G12D) = assay: In vitro cell growth inhibition, CRC; format: cell-based; conditions: Homo sapiens, LS-513
LS174T (KRAS^G12D) = assay: In vitro cell growth inhibition, CRC; format: cell-based; conditions: Homo sapiens
[3] = system: MEK and ERK phosphorylation in Calu-6 (KRAS^Q61K) cells; assay: Inhibition of MEK and ERK phosphorylation, KRAS mutant; format: cell-based; conditions: Homo sapiens, NSCLC Cau-6 (Calu-6), 2 hr treatment
Lovo (KRAS^G13D) = assay: In vitro cell growth inhibition, CRC; format: cell-based; conditions: Homo sapiens
Calu-1 (KRAS^G12C) = assay: In vitro cell growth inhibition, NSCLC; format: cell-based; conditions: Homo sapiens
DDR2 = target: T1, DDR2 (Homo sapiens, UniProt Q16832); assay: In vitro kinase assay; format: biochemical; conditions: confirmatory assay
T1 sequence (Q16832 22-855): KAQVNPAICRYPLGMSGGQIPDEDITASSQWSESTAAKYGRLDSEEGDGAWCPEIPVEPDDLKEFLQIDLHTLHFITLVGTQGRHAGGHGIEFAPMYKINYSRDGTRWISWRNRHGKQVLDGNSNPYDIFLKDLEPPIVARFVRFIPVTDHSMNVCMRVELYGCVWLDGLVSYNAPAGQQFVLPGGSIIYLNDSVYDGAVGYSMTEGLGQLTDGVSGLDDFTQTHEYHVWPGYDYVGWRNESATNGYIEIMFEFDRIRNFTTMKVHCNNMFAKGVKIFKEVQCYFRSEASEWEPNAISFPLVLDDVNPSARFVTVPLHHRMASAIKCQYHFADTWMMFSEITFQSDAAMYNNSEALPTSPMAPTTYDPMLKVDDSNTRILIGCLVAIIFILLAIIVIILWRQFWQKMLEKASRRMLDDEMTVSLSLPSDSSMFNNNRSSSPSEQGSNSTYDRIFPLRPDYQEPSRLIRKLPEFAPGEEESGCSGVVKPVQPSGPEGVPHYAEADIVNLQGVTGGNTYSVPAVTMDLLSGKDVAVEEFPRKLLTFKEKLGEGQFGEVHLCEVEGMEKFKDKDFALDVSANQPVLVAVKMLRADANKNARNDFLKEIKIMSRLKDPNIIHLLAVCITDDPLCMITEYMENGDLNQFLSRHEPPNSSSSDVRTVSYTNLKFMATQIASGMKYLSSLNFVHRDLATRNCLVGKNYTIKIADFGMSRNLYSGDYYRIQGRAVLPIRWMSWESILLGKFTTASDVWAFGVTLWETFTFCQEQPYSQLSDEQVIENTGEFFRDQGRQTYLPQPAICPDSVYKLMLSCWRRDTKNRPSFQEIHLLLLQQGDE
Description: (§2) The in vitro kinase inhibitory selectivity and activity of belvarafenib were evaluated in a kinase panel assay against 189 kinases and a subsequent confirmatory assay against selected kinases by using Z′-Lyte® biochemical assay, Lantha® binding assay and Adapter® assay.

CSF1R (FMS) = CSF1R (FMS) (Homo sapiens, UniProt P07333); assay: In vitro kinase assay; format: biochemical; conditions: confirmatory assay
Description: as §2

DDR1 = DDR1 (Homo sapiens, UniProt Q08345); assay: In vitro kinase assay; format: biochemical; conditions: confirmatory assay
Description: as §2

FRO (BRAF^V600E) = assay: In vitro cell growth inhibition, thyroid cancer; format: cell-based
NPA (BRAF^V600E) = assay: In vitro cell growth inhibition, thyroid cancer; format: cell-based
B-CPAP (BRAF^V600E) = assay: In vitro cell growth inhibition, thyroid cancer; format: cell-based; conditions: Homo sapiens, BCPAP
SNU790 (BRAF^V600E) = assay: In vitro cell growth inhibition, thyroid cancer; format: cell-based; conditions: SNU7890, BRAF^V600E
HT-29 (BRAF^V600E) = assay: In vitro cell growth inhibition, CRC; format: cell-based; conditions: Homo sapiens
CAL-62 (KRAS^G12R) = assay: In vitro cell growth inhibition, thyroid cancer; format: cell-based; conditions: Homo sapiens
[4] = system: MEK and ERK phosphorylation in A375 (BRAF^V600E) cells; assay: Inhibition of MEK and ERK phosphorylation; format: cell-based; conditions: Homo sapiens
Colo-205 (BRAF^V600E) = assay: In vitro cell growth inhibition, CRC; format: cell-based; conditions: Homo sapiens
SNU80 (BRAF^G468R) = assay: In vitro cell growth inhibition, thyroid cancer; format: cell-based
[5] = system: MEK and ERK phosphorylation in SK-MEL-28 (BRAF^V600E) cells; assay: Inhibition of MEK and ERK phosphorylation; format: cell-based; conditions: Homo sapiens
[6] = system: MEK and ERK phosphorylation in SK-MEL-30 (NRAS^Q61K) cells; assay: Inhibition of MEK and ERK phosphorylation; format: cell-based; conditions: Homo sapiens
ARO (BRAF^V600E) = assay: In vitro cell growth inhibition, thyroid cancer; format: cell-based
[7] = system: MEK and ERK phosphorylation in SK-MEL-2 (NRAS^Q61R) cells; assay: Inhibition of MEK and ERK phosphorylation; format: cell-based; conditions: Homo sapiens
8505C (BRAF^V600E) = assay: In vitro cell growth inhibition, thyroid cancer; format: cell-based; conditions: Homo sapiens
NRAS-mutant melanoma = NRAS-mutant melanoma patients, NEMO study; cited from earlier work
[8] = Conc 1, first (lowest) concentration
[9] = Conc 2, second (intermediate) concentration
[10] = Conc 3, third (highest) concentration

CSF1R (FMS), sequence (P07333 20-972): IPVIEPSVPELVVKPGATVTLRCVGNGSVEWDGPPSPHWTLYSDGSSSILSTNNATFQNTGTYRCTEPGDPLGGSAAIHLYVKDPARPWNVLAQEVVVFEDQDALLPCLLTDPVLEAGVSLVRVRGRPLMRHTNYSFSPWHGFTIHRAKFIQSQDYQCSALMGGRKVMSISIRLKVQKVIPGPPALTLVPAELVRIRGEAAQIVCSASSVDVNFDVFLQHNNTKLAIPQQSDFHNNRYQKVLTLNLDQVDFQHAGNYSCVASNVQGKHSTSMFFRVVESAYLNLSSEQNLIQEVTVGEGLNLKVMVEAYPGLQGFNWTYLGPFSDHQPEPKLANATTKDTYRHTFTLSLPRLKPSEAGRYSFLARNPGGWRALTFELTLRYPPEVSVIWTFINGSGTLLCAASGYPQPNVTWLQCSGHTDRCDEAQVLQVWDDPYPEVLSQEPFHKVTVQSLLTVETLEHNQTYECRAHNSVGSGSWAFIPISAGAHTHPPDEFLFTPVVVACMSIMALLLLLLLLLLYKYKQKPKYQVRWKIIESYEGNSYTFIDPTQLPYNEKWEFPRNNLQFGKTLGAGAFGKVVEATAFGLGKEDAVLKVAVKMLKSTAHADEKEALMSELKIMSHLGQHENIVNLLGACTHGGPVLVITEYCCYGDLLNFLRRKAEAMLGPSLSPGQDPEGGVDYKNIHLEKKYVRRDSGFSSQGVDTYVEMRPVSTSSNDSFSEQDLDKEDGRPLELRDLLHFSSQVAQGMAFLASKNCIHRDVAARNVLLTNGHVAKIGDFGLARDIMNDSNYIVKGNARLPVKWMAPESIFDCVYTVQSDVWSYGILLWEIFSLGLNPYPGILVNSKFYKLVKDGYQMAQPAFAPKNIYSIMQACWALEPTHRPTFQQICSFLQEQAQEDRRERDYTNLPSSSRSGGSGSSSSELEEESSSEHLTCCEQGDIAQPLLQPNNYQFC
DDR1, sequence (Q08345 19-913): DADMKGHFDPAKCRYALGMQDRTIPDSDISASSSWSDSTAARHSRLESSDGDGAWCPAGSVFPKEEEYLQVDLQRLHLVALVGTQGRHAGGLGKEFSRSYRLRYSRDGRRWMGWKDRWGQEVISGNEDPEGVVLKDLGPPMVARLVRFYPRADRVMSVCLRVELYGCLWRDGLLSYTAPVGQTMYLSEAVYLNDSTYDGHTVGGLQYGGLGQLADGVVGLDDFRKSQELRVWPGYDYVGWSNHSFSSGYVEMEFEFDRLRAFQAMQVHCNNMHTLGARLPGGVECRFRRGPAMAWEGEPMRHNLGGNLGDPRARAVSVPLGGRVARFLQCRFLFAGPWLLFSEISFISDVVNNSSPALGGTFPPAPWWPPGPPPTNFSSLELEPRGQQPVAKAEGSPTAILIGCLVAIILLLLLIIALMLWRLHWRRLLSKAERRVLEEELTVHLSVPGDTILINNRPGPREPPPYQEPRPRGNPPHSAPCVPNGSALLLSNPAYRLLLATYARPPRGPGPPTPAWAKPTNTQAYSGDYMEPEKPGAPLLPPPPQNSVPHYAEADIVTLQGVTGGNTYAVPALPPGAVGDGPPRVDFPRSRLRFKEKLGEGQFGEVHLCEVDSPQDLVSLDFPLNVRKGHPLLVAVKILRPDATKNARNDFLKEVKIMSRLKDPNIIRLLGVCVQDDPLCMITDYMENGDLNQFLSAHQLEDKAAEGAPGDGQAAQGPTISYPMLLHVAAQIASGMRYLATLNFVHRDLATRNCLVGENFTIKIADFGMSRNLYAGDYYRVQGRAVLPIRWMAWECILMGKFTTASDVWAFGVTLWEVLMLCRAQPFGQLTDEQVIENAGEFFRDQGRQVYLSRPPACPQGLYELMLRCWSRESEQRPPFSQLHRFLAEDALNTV

Compound: CC(C)(C)c1nc(-c2cccc(NS(=O)(=O)c3c(F)cccc3F)c2F)c(-c2ccnc(N)n2)s1 [Dabrafenib]
GI50 (HCT116 (KRAS^G13D)): > 10 µM
IC50 ([1]; read-out: IC50 pERK): > 10 µM
IC50 ([1]; read-out: IC50 pMEK): > 10 µM
IC50 ([2]; read-out: IC50 pERK): > 10 µM
IC50 ([2]; read-out: IC50 pMEK): > 10 µM
GI50 (A375 (BRAF^V600E)): < 0.1 nM
% P/T-MEK (P-MEK / total MEK; [8]): 125%
% P/T-MEK (P-MEK / total MEK; [9]): 150%
% P/T-MEK (P-MEK / total MEK; [10]): 75%
GI50 (Calu-6 (KRAS^Q61K)): 618 nM
GI50 (SK-MEL-28 (BRAF^V600E)): < 0.1 nM
GI50 (SK-MEL-2 (NRAS^Q61R)): 204 nM
GI50 (SK-MEL-30 (NRAS^Q61K)): 258 nM
GI50 (LS513 (KRAS^G12D)): 3.06 µM
GI50 (LS174T (KRAS^G12D)): > 10 µM
IC50 ([3]; read-out: IC50 pERK): > 10 µM
IC50 ([3]; read-out: IC50 pMEK): > 10 µM
GI50 (Lovo (KRAS^G13D)): 214 nM
GI50 (Calu-1 (KRAS^G12C)): 0.904 µM

Compound: Cc1ccc(NC(=O)c2ccnc(C(F)(F)F)c2)cc1-c1cc(OCCO)nc(N2CCOCC2)c1 [LXH254]
% P/T-MEK (P-MEK / total MEK; [8]): 80%
% P/T-MEK (P-MEK / total MEK; [9]): 70%
% P/T-MEK (P-MEK / total MEK; [10]): 10%

GI50 (HCT116 (KRAS^G13D)): > 10 µM
IC50 (DDR2): > 10 µM
IC50 (CSF1R (FMS)): > 10 µM
IC50 (DDR1): > 10 µM
IC50 ([1]; read-out: IC50 pERK): > 10 µM
IC50 ([1]; read-out: IC50 pMEK): > 10 µM
IC50 ([2]; read-out: IC50 pERK): > 10 µM
IC50 ([2]; read-out: IC50 pMEK): > 10 µM
GI50 (FRO (BRAF^V600E)): 1760 nM
GI50 (NPA (BRAF^V600E)): 44 nM
GI50 (B-CPAP (BRAF^V600E)): 31 nM
GI50 (A375 (BRAF^V600E)): 75 ± 12 nM
GI50 (Calu-6 (KRAS^Q61K)): > 10000 nM
GI50 (SK-MEL-28 (BRAF^V600E)): 77 ± 17 nM
GI50 (SNU790 (BRAF^V600E)): 190 nM
GI50 (HT-29 (BRAF^V600E)): 110 nM
GI50 (CAL-62 (KRAS^G12R)): > 10 µM
GI50 (SK-MEL-2 (NRAS^Q61R)): > 10000 nM
GI50 (SK-MEL-30 (NRAS^Q61K)): > 10000 nM
IC50 ([4]; A-375, read-out: IC50 pERK): 20 nM
IC50 ([4]; A-375, read-out: IC50 pMEK): 73 nM
GI50 (Colo-205 (BRAF^V600E)): 65 nM
GI50 (SNU80 (BRAF^G468R)): 2850 nM
IC50 ([3]; read-out: IC50 pERK): > 10 µM
IC50 ([3]; read-out: IC50 pMEK): > 10 µM
IC50 ([5]; read-out: IC50 pERK): 28 nM
IC50 ([5]; read-out: IC50 pMEK): 32 nM
IC50 ([6]; read-out: IC50 pERK): > 10 µM
IC50 ([6]; read-out: IC50 pMEK): > 10 µM
GI50 (ARO (BRAF^V600E)): 5.26 µM
GI50 (Lovo (KRAS^G13D)): 4020 nM
IC50 ([7]; read-out: IC50 pERK): > 10 µM
IC50 ([7]; read-out: IC50 pMEK): > 10 µM
GI50 (8505C (BRAF^V600E)): 3.44 µM
GI50 (Calu-1 (KRAS^G12C)): 7.48 µM
Compound: CCCS(=O)(=O)Nc1ccc(F)c(C(=O)c2c[nH]c3ncc(-c4ccc(Cl)cc4)cc23)c1F [Vemurafenib, reference compound]
GI50 (LS513 (KRAS^G12D)): > 10 µM
GI50 (LS174T (KRAS^G12D)): > 10 µM

Compound: Cn1cnc2c(F)c(Nc3ccc(Br)cc3F)c(C(=O)NOCCO)cc21 [binimetinib]
mPFS (NRAS-mutant melanoma): 2.8 months
overall response rate (NRAS-mutant melanoma): 15%
